In US12077555B2, “STAT degraders and uses thereof” (Kymera Therapeutics, Inc., priority 2019, dated 2024) one finds DC50 data, which are given here for 10 compounds.

Read-outs that look alike come from different tables or passages of the source.

The test has as its target STAT3 (Homo sapiens, UniProt P40763). The experiment in a line: STAT3 HiBiT degradation assay in transfected A549 cells. In kind it is cell-based. Also on record: expressed in transfected cells; host or cells: A549. In outline: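 Degradation read as HiBiT-tagged STAT3 luminescence (Nano-Glo lytic reagent, 10 min, room temperature) following 24 h compound treatment of transfected A549 cells at 3-fold, 10 points. Percent remaining signal computed against controls and fitted with a four-parameter logistic; DC50 reported as letter bins (A <0.01 to D >1.0 µM).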

Where [1] appears, read: A549, 24 h; read-out: STAT3 HiBiT A549 degradation 24 h: Average external-Abs DC50.

STAT3, sequence (P40763 whole entry): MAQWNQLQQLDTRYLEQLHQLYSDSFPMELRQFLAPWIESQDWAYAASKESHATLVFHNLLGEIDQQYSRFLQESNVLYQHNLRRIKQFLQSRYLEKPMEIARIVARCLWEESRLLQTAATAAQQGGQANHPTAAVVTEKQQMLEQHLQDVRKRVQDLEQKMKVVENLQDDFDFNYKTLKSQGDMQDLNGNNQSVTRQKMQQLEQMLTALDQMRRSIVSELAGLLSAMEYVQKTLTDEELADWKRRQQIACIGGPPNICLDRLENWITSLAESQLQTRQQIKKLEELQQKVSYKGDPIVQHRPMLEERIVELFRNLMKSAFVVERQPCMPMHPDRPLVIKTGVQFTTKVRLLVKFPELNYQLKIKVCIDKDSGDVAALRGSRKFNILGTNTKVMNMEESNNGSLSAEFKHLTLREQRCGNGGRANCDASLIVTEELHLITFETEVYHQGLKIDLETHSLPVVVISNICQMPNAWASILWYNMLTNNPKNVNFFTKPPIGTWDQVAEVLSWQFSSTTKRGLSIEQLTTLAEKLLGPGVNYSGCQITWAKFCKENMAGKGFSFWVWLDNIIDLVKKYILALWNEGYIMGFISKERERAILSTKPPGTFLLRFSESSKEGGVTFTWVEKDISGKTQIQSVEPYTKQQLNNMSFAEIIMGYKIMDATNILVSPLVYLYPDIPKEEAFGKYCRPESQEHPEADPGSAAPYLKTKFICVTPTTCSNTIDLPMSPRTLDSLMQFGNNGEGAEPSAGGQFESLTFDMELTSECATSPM

Regarding `Cc1ncsc1-c1ccc(CNC(=O)[C@@H]2C[C@@H](O)CN2C(=O)[C@@H](NC(=O)C2(CCCc3ccc(CO[C@H](C)[C@H](CCC(N)=O)NC(=O)[C@@H]4Cc5cccc6c5N4C(=O)[C@@H](NC(=O)c4cc5cc(C(=O)P(=O)(O)O)ccc5[nH]4)CC6)cc3)CC2)C(C)(C)C)cc1` [Compound I-223, diammonium 2-[[(2S,11S)-2-[[(3S,4R)-1-carbamoyl-4-([4-[3-(1-[[(2S)-1-[(2S,4R)-4-hydroxy-2-([[4-(4-methyl-1,3-thiazol-5-yl)phenyl]methyl]carbamoyl)pyrrolidin-1-yl]-3,3-dimethyl-1-oxobutan-2-yl]carbamoyl]cyclopropyl)propyl]phenyl]methoxy)pentan-3-yl]carbamoyl]-12-oxo-1-azatricyclo[6.4.1.0^[4,13]]trideca-4(13),5,7-trien-11-yl]carbamoyl]-1H-indole-5-carbonylphosphonate], under setting [1], the DC50 fell in the range of 100 to 1000 nM.

Consider `Cc1ncsc1-c1ccc([C@H](C)NC(=O)[C@@H]2C[C@@H](O)CN2C(=O)[C@@H](NC(=O)CCCCCc2c(F)ccc(OC[C@H](CCC(N)=O)NC(=O)[C@@H]3Cc4cccc5c4N3C(=O)[C@@H](NC(=O)c3cc4cc(C(=O)P(=O)(O)O)ccc4[nH]3)CC5)c2F)C(C)(C)C)cc1` [Compound I-252], for which the DC50 under setting [1] was less than 10 nM.

Regarding `Cc1ncsc1-c1ccc([C@H](C)NC(=O)[C@@H]2C[C@@H](O)CN2C(=O)[C@@H](NC(=O)CCCCc2cccc(OC[C@H](CCC(N)=O)NC(=O)[C@@H]3CCCN3C(=O)[C@H](CC(C)C)NC(=O)c3cc4cc(C(=O)P(=O)(O)O)ccc4[nH]3)c2Cl)C(C)(C)C)cc1` [Compound I-239, diammonium 2-[[(2S)-1-[(2S)-2-[[(2S)-4-carbamoyl-1-[2-chloro-3-(4-[[(2S)-1-[(2S,4R)-4-hydroxy-2-[[(1S)-1-[4-(4-methyl-1,3-thiazol-5-yl)phenyl]ethyl]carbamoyl]pyrrolidin-1-yl]-3,3-dimethyl-1-oxobutan-2-yl]carbamoyl]butyl)phenoxy]butan-2-yl]carbamoyl]pyrrolidin-1-yl]-4-methyl-1-oxopentan-2-yl]carbamoyl]-1H-], under setting [1], the DC50 was less than 10 nM.

In the case of `Cc1ncsc1-c1ccc(CNC(=O)[C@@H]2C[C@@H](O)CN2C(=O)[C@@H](NC(=O)CCCCCCCOC[C@H](CCC(N)=O)NC(=O)[C@@H]2Cc3cccc4c3N2C(=O)[C@@H](NC(=O)c2cc3cc(C(=O)P(=O)(O)O)ccc3[nH]2)CC4)C(C)(C)C)cc1` [Compound I-155], under setting [1], the DC50 was greater than 1000 nM.

As to `Cc1ncsc1-c1ccc(CNC(=O)[C@@H]2C[C@@H](O)CN2C(=O)[C@@H](NC(=O)CCCCCCCCOC[C@H](CCC(N)=O)NC(=O)[C@@H]2Cc3cccc4c3N2C(=O)[C@@H](NC(=O)c2cc3cc(C(=O)P(=O)(O)O)ccc3[nH]2)CC4)C(C)(C)C)cc1` [Compound I-154], under setting [1], the half-maximal degradation concentration (DC50) was greater than 1000 nM.

For `Cc1ncsc1-c1ccc([C@H](C)NC(=O)[C@@H]2C[C@@H](O)CN2C(=O)[C@@H](NC(=O)CCCCCc2cc(OC[C@@H](NC(=O)[C@@H]3Cc4cccc5c4N3C(=O)[C@@H](NC(=O)c3cc4cc(C(=O)P(=O)(O)O)ccc4[nH]3)CC5)C(N)=O)ccc2Cl)C(C)(C)C)cc1` [Compound I-199, diammonium 2-[[(2S,11S)-2-[[(2S)-4-carbamoyl-1-[4-chloro-3-(5-[[(2S)-1-[(2S,4R)-4-hydroxy-2-[[(1S)-1-[4-(4-methyl-1,3-thiazol-5-yl)phenyl]ethyl]carbamoyl]pyrrolidin-1-yl]-3,3-dimethyl-1-oxobutan-2-yl]carbamoyl]pentyl)phenoxy]butan-2-yl]carbamoyl]-12-oxo-1-azatricyclo[6.4.1.0^[4,13]]trideca-4(13),5,7-trien-11-yl]carbamoyl]-1H-indole-5-carbonylphosphonate], under setting [1], the 50% degradation concentration (DC50) fell in the range of 10 to 100 nM.

Regarding `Cc1ncsc1-c1ccc(CNC(=O)[C@@H]2C[C@@H](O)CN2C(=O)[C@@H](NC(=O)CCc2cccc3cc(CO[C@H](C)[C@H](CCC(N)=O)NC(=O)[C@@H]4Cc5cccc6c5N4C(=O)[C@@H](NC(=O)c4cc5cc(C(=O)P(=O)(O)O)ccc5[nH]4)CC6)ccc23)C(C)(C)C)cc1` [Compound I-136, diammonium 2-[[(2S,11S)-2-[[(3S,4R)-1-carbamoyl-4-[[5-(2-[[(2S)-1-[(2S,4R)-4-hydroxy-2-([[4-(4-methyl-1,3-thiazol-5-yl)phenyl]methyl]carbamoyl)pyrrolidin-1-yl]-3,3-dimethyl-1-oxobutan-2-yl]carbamoyl]ethyl)naphthalen-2-yl]methoxy]pentan-3-yl]carbamoyl]-12-oxo-1-azatricyclo[6.4.1.0^[4,13]]trideca-4(13),5,7-trien-11-yl]carbamoyl]-1H-indole-5-carbonylphosphonate], under setting [1], the DC50 is greater than 1000 nM.

Turning to `Cn1c(=O)n(C(CCC(N)=O)C(=O)O)c2ccc(C[C@H]3CC[C@@H](CC(=O)N4CC[C@H]5CC[C@@H](C(=O)N[C@@H](CCC(N)=O)C(=O)NC(c6ccccc6)c6ccccc6)N5C(=O)[C@@H](NC(=O)c5cc6cc(C(=O)P(=O)(O)O)ccc6[nH]5)C4)CC3)cc21` (stereo partly drawn) [Compound I-255, 4-carbamoyl-2-(3-methyl-2-oxo-5-[[(1s,4s)-4-[2-[(5S,8S,10aR)-8-[[(1S)-3-carbamoyl-1-(diphenylmethylcarbamoyl)propyl]carbamoyl]-6-oxo-5-[5-(phosphonocarbonyl)-1H-indole-2-amido]-octahydropyrrolo[1,2-a][1,5]diazocin-3-yl]-2-oxoethyl]cyclohexyl]methyl]-1,3-benzodiazol-1-yl)butanoic acid], the DC50 (read-out: STAT3 HiBiT A549 degradation 24 h: Average external-Abs DC50; A549, 24 h) is greater than 1000 nM.

`Cn1c(=O)n(C2CCC(=O)NC2=O)c2ccc(CCCCOc3ccc4c5c3CC[C@H](NC(=O)c3cc6cc(C(=O)P(=O)(O)O)ccc6[nH]3)C(=O)N5[C@H](C(=O)N[C@@H](CCC(N)=O)C(=O)NC(c3ccccc3)c3ccccc3)C4)cc21` (stereo partly drawn) [Compound I-270, 2-[[(2S,11S)-2-[[(1S)-3-carbamoyl-1-(diphenylmethylcarbamoyl)propyl]carbamoyl]-7-[4-[1-(2,6-dioxopiperidin-3-yl)-3-methyl-2-oxo-1,3-benzodiazol-5-yl]butoxy]-12-oxo-1-azatricyclo[6.4.1.0^[4,13]]trideca-4(13),5,7-trien-11-yl]carbamoyl]-1H-indole-5-carbonylphosphonic acid]: the DC50 under setting [1] was in the range of 100 to 1000 nM.

As to `Cn1c(=O)n(C2CCC(=O)NC2=O)c2ccc(NCCCCCC(=O)N3CC[C@H]4CC[C@@H](C(=O)N[C@@H](CCC(N)=O)C(=O)NC(c5ccccc5)c5ccccc5)N4C(=O)[C@@H](NC(=O)c4cc5cc(C(=O)P(=O)(O)O)ccc5[nH]4)C3)cc21` (stereo partly drawn) [Compound I-132, 2-[[(5S,8S,10aR)-8-[[(1S)-3-carbamoyl-1-(diphenylmethylcarbamoyl)propyl]carbamoyl]-3-(6-[[1-(2,6-dioxopiperidin-3-yl)-3-methyl-2-oxo-1,3-benzodiazol-5-yl]amino]hexanoyl)-6-oxo-octahydropyrrolo[1,2-a][1,5]diazocin-5-yl]carbamoyl]-1H-indole-5-carbonylphosphonic acid], the DC50 under setting [1] fell in the range of 100 to 1000 nM.
